Data as given in patent publication US20070056052A1, “Methods of generating knock-out rodents” (priority 2001, published 2007).

Tested on: SD male rats (germ line)
Assay: Visual phenodeviant screen of F1 pups from ENU-treated SD males
Type: in vivo, rat
Description: ENU mutagenesis rat protocol: Pathogen-free inbred Wistar Furth (WF), inbred Fischer-344 (F344) and outbred Sprague Dawley (SD) male and female rats were obtained from Harlan Sprague Dawley, Inc. (Indianapolis, Ind.). All rats were given Teklad Lab Blox chow (Harlan Teklad, Madison, Wis.), acidified water ad libitum, and were housed under a 12-h light/12-h dark cycle. After a one week acclimation period, nine-week-old male rats were administered ENU as a single intraperitoneal injection; for a split dose, rats were injected with ENU once at 9 weeks of age and again at 10 weeks of age. One gram of ENU (Sigma) was dissolved in 10 mls of 95% ethanol and then diluted with 90 mls of phosphate citrate buffer prior to injection. All injections of ENU were given in the morning hours. To characterize the effect of ENU treatment on fertility in the various rat strains, mutagenized males were paired with untreated females of the same strain for consecutive 2-3 week periods, beginning 3-5 weeks after the first ENU treatment and continuing a minimum of 26 weeks post-ENU. We observed female rats for vaginal plugs, gross pregnancy and date of birth/size of litters. For our phenotypic mutant (phenodeviant) rat screening experiments, ENU-treated SD male rats were bred with SD female rats and all F1 pups were visually checked for gross abnormalities in physical development or behavior as compared to littermates at least twice prior to weaning at approximately 21 days of age. A subset of the F1 phenodeviant rats identified was bred to SD rats to determine inheritance of the observed phenotypic mutation. Several of the heritable phenodeviant rat lines are currently being maintained and backcrossed to eliminate residual ENU-induced genetic changes not associated with the phenotypic mutation.
Phenodeviant rat production: Multiple ENU dosing protocols in the SD rat strain determine their germline mutagenic potential by breeding ENU-treated SD males to females of the same strain to produce F1 offspring. These pups were examined for readily observable physical or behavioral abnormalities. Phenodeviants were identified at all doses listed in Table 2 with a variety of abnormalities observed. Phenodeviant F1 pups were born at various times between 6-52 weeks post-ENU treatment of male founders. The most frequent abnormalities visually identified were those of the eyes, tail, and growth. […] Selected phenodeviant rat F1 pups were maintained and bred to determine the heritability of the physical abnormalities (Table 3). […] These abnormalities were diverse (Table 4).

## CCN(N=O)C(N)=O [ENU, N-ethyl-N-nitrosourea]
Single dose 100 mg/kg
  F1 phenodeviant rats, abnormality observed: behavioral: 1
  F1 phenodeviant rats, abnormality observed: craniofacial: 0
  F1 phenodeviant rats, abnormality observed: ear: 1
  F1 phenodeviant rats, abnormality observed: eye: 5
  F1 phenodeviant rats, abnormality observed: gonad: 1
  F1 phenodeviant rats, abnormality observed: growth (<50% littermates): 0
  F1 phenodeviant rats, abnormality observed: limb/digit: 0
  F1 phenodeviant rats, abnormality observed: multiple: 0
  F1 phenodeviant rats, abnormality observed: skin/hair: 0
  F1 phenodeviant rats, abnormality observed: tail: 0
Single dose 100 mg/kg, 1251 F1 rats examined
  total number of phenodeviants: 8
Single dose 120 mg/kg
  F1 phenodeviant rats, abnormality observed: behavioral: 0
  F1 phenodeviant rats, abnormality observed: craniofacial: 0
  F1 phenodeviant rats, abnormality observed: ear: 1
  F1 phenodeviant rats, abnormality observed: eye: 1
  F1 phenodeviant rats, abnormality observed: gonad: 0
  F1 phenodeviant rats, abnormality observed: growth (<50% littermates): 0
  F1 phenodeviant rats, abnormality observed: limb/digit: 0
  F1 phenodeviant rats, abnormality observed: multiple: 0
  F1 phenodeviant rats, abnormality observed: skin/hair: 0
  F1 phenodeviant rats, abnormality observed: tail: 1
Single dose 120 mg/kg, 419 F1 rats examined
  total number of phenodeviants: 3
Split dose 2 × 50 mg/kg
  F1 phenodeviant rats, abnormality observed: behavioral: 0
  F1 phenodeviant rats, abnormality observed: craniofacial: 0
  F1 phenodeviant rats, abnormality observed: ear: 0
  F1 phenodeviant rats, abnormality observed: eye: 4
  F1 phenodeviant rats, abnormality observed: gonad: 0
  F1 phenodeviant rats, abnormality observed: growth (<50% littermates): 0
  F1 phenodeviant rats, abnormality observed: limb/digit: 0
  F1 phenodeviant rats, abnormality observed: multiple: 0
  F1 phenodeviant rats, abnormality observed: skin/hair: 0
  F1 phenodeviant rats, abnormality observed: tail: 3
Split dose 2 × 50 mg/kg, 782 F1 rats examined
  total number of phenodeviants: 7
Split dose 2 × 60 mg/kg
  F1 phenodeviant rats, abnormality observed: behavioral: 0
  F1 phenodeviant rats, abnormality observed: craniofacial: 2
  F1 phenodeviant rats, abnormality observed: ear: 0
  F1 phenodeviant rats, abnormality observed: eye: 37
  F1 phenodeviant rats, abnormality observed: gonad: 0
  F1 phenodeviant rats, abnormality observed: growth (<50% littermates): 10
  F1 phenodeviant rats, abnormality observed: limb/digit: 5
  F1 phenodeviant rats, abnormality observed: multiple: 6
  F1 phenodeviant rats, abnormality observed: skin/hair: 6
  F1 phenodeviant rats, abnormality observed: tail: 13
Split dose 2 × 60 mg/kg, 5163 F1 rats examined
  total number of phenodeviants: 79
